The test relates to murine islets. Description: Synchronization of GSIS from grouped islets by periodic CCh pulses. Type of test: cell-based. Conditions: 5 islets, constant 11 mM glucose, 30 s every 5 min. Here is the method: CCh, an M3R agonist, synchronizes glucose-induced islet activity as measured by synchronized oscillations of [Ca^2+]i levels. Because no recording of insulin release has been reported after delivery of CCh pulses, synchronized hormone secretion had not previously been verified. Using the newly-developed anisotropy method, it was tested whether GSIS from grouped islets can be entrained during periodic application of CCh.
For this experiment, reagent reservoirs connected to inlets 1 and 2 contained 11 mM glucose and 10 μM CCh in 11 mM glucose, respectively. A group of 5 islets were loaded into the islet chamber that had been filled with 11 mM glucose. After sealing the chamber, islets were continuously perfused with constant 11 mM glucose from inlet 1. CCh pulses were generated by switching the flow from inlet 1 to inlet 2. Pulse profiles consisted of 5 pulses (denoted by ‘x’ in FIG. 10A and FIG. 10B) each delivered for 30 s every 5 min. Considering broadening of each pulse (FIG. 3C), islets were exposed to an effective [CCh] of 4.7 μM.
In FIG. 10A and FIG. 10B, the glucose level remained constant at 11 mM. In the islet chamber during each experiment were 5 islets. In FIG. 10A, GSIS was synchronized by a train of 5 CCh pulses. Each 30 second pulse, ‘x’, was delivered every 5 minutes from 5 to 25 minutes. Numbered insulin peaks highlight oscillations likely stimulated by a CCh pulse. […]

As to `C[N+](C)(C)CCOC(N)=O` [CCh, carbachol], the “insulin spikes after CCh pulses, average of final 3 spikes” value (5 pulses of 10 μM CCh (effective 4.7 μM)) is listed as 78±12 pg min^−1 islet^−1. Besides, the “synchronization of GSIS” value (train of 5 CCh pulses) was “synchronized”.
